We go through 5 compounds from patent US20230414557A1, “NEW THERAPY CONCEPT FOR THE TREATMENT OF CORONA INFECTIONS, ESPECIALLY COVID-19 INFECTIONS” (priority 2020, published 2023).

Data set [1] has as its system superoxide production (O2^−-production). In words: PMA-stimulated superoxide production (O2−-production) of human monocytes in vitro, INT formazan. Type of data set: cell-based. Particulars: RPMI-1640, 20 hours.
For data set [2] the following is noted: cited from earlier work.
Data set [3] has as its system superoxide dismutases (SOD). In words: activity of superoxide dismutases. It counts as cell-based.
Data set [4] relates to corona viruses. It counts as cell-based, human.
Data set [5] deals with IL-1beta. In words: LPS-stimulated production of IL-1beta in human monocytes in vitro (ELISA). It counts as cell-based. Particulars: for IL-1beta / effect vs. control inhibition (%): LPS-stimulated human monocytes. On the procedure:
In cell culture supernatants, the production of IL-1beta is determined by ELISA (Cayman Chemical, Ann Arbor, Michigan, USA).

Data set [6] concerns NO-production. The experiment in a line: NO-production in stimulated human monocytes in vitro. It counts as cell-based. Particulars: 20 hours.
Data set [7] concerns TNF-alpha (tumor necrosis factor-alpha). In words: production of TNF-alpha in human monocytes of volunteers. It counts as cell-based. The settings on record: 1,8-cineole alone.
In data set [8] the test system is COVID-19. The experiment in a line: thrombocytes from patients suffering from COVID-19 incubated with 1,8-cineole. Type of data set: cell-based, human. Particulars: thrombocytes from COVID-19 patients incubated with 1,8-cineole. An excerpt:
This antiviral effect of 1,8-cineole in COVID-19 infections is completely unexpected.

The test system of data set [9] is IL-8 (interleukin-8). The experiment in a line: production of IL-8 in human monocytes of volunteers. It counts as cell-based. The settings on record: 1,8-cineole alone.
The subject of data set [10] is hydrogen peroxide (H2O2). The experiment in a line: production of hydrogen peroxide. Type of data set: cell-based. Particulars: even at lower concentrations and in the therapeutic range.
In data set [11] the test system is COVID-19. Particulars: human, in vivo; cited from earlier work.
[12] abbreviates: 1,8-cineole 0.0015 μg/ml (10^−8 mol/l).
Where [13] appears, read: 1,8-cineole 1.2 μg/ml (8 × 10^−6 mol/l).
[14] abbreviates: 1,8-cineole 1.5 μg/ml (10^−5 mol/l).
[15] abbreviates: 1,8-cineole 3.0 μg/ml (2 × 10^−5 mol/l).

With `CC12CCC(CC1)C(C)(C)O2` [1,8-cineole, 1,3,3-trimethyl-2-oxabicyclo[2.2.2]octane], the INT-formazan in [1] (setting [12]) was determined as 5364 ± 229 nmol/10^5; in data set [1] (setting [13]), 4099 ± 234 nmol/10^5; in data set [1] (setting [14]), 2438 ± 389 nmol/10^5; in data set [1] (setting [15]) it was 634 ± 139 nmol/10^5. The “comparison to control (%)” value in data set [1] (setting [12]) was “+27.6 ± 4%”; in data set [1] (setting [13]), −2.5 ± 6%; in data set [1] (setting [14]), −42 ± 16%; in data set [1] (setting [15]), −84.9 ± 22%. In [2], the solubility in water result is “insoluble in water”. Also, in data set [3], the superoxide dismutase activity entry is recorded as “partially inhibited”. Further, the “outbreak of infection, especially hypercytokinemia” value in [4] is on record as “prevented or reduced”. Besides, in data set [4] (healthy thrombocytes incubated with COVID-19, subsequently incubation with 1,8-cineole), the “virus replication and production of hyperinflammatory cytokines in thrombocytes” value is on record as “inhibited”. The “monocyte IL-1beta production, result in words” value in data set [5] (10^−6 mol/l, compared with the control) is “significantly inhibited”. In addition, the IL-1beta in data set [5] (10^−6 mol/l, 20 hours) came to 3548 ± 600 pg/5 × 10^−4 cells. Also, in data set [5] (10^−6 mol/l, 20 hours), the “effect vs. control inhibition (%)” value is recorded as 32.4 ± 17%. Also, the NO-production entry is reported as “inhibit NO-production” in data set [6] (low subtherapeutic concentrations of 1,8-cineole) and “strong or significant stimulatory effects on NO-production” in data set [6] (therapeutic dose range of 1,8-cineole). For the same compound, the “production of TNF-alpha” value in data set [7] is recorded as “significant inhibitory effect”. In data set [8], the “course of infection, especially hypercytokinemia” value is “prevented or attenuated”. In [9], the “production of IL-8” value is on record as “significant inhibitory effect”. For the same compound, the “production of H2O2” value in data set [10] was “inhibits”.
For `CCN(CCO)CCCC(C)Nc1ccnc2cc(Cl)ccc12` (stereo not shown) [hydroxychloroquine], the “efficacy in COVID-19” value in [11] was “no evidence of efficacy”.
Take `CCN(CC)CCCC(C)Nc1ccnc2cc(Cl)ccc12` (stereo not shown) [Chloroquine]: in data set [11], the “efficacy in COVID-19” value is reported as “no evidence of efficacy”.
For `C[C@@H]1C[C@H]2[C@@H]3CCC4=CC(=O)C=C[C@]4(C)[C@@]3(F)[C@@H](O)C[C@]2(C)[C@@]1(O)C(=O)CO` [dexamethasone, 9-fluoro-16alpha-methylprednisolone], in data set [5] (dex. 10^−9 mol/l), the IL-1beta is 2655 ± 546 pg/5 × 10^−4 cells and the “effect vs. control inhibition (%)” value is 49.5 ± 20%. In addition, in [5] (dex. 10^−12 mol/l), the IL-1beta was found to be 5245 ± 1027 pg/5 × 10^−4 cells and the “effect vs. control inhibition (%)” value worked out at 0.1 ± 19%.
As to “Tocilizumab: monoclonal antibody approved for rheumatoid arthritis and cytokine release syndrome”, the “efficacy in COVID-19” value in data set [11] was “ineffective”.
